From patent publication US9492447B2, “Cannabinoid receptor modulators” (Arena Pharmaceuticals, Inc., priority 2011, dated 2016)

What was measured:
Type in all cases: in vivo, rat
[1] = test system: paclitaxel-induced allodynia in Sprague Dawley rats; test: Paclitaxel-induced allodynia; settings: 10 mg/kg orally
Experimental: Therapy however is often associated with the unwanted side affects of painful peripheral neuropathy.
Male Sprague Dawley rats [200-250 g](Harlan Laboratories Inc., Livermore, Calif.) were housed three per cage and maintained in a humidity-controlled (40-60%) and temperature-controlled (68-72° F.) facility on a 12 h: 12 h light/dark cycle (lights on at 6:30 am) with free access to food (Harlan Teklad, Orange, Calif., Rodent Diet 8604) and water. Rats were allowed one week of habituation to the animal facility before starting treatment.
Rats were treated intraperitoneally, with 2 mg/kg of paclitaxel (Sigma Aldrich, Saint Louis, Mo.) in 10% Cremophor vehicle (500 μL) on days 0, 2, 4, and 6.
Tactile allodynia was tested using von Frey filaments. Briefly, the von Frey assay was performed using the standardized up down method with von Frey filaments, that determine the tactile sensitivity of the paw. By applying the increasingly or decreasingly thicker filaments to the paw in a logarithmic scale of actual force, a linear scale of perceived intensity is determined.
Eight days after the start of paclitaxel dosing, a baseline measurement (von Frey assay) was performed prior to dosing of compounds. […] As a positive control, rats were dosed intraperitoneally with 100 mg/kg gabapentin in water. The dosing volume for oral and peritoneal treatment was 500 μL. […]

[2] = test system: FCA-induced hyperalgesia in rats; test: FCA-induced hyperalgesia model of inflammatory pain; settings: 0.1, 1, 3, 10 and 30 mg/kg orally; 1 h post dosing; Analgesy-Meter; FIG. 1
Experimental: Male Sprague Dawley rats from Harlan (200-225 g when received) were used. Upon arrival, rats were housed 4 per cage in shoe-box polycarbonate cages with wire tops, wood chip bedding and suspended food and water bottles. Animals were acclimated for 5-7 days prior to being injected with Freund's complete adjuvant (FCA) (Sigma; catalog #5881).
2 days (48 h) before testing compounds, baseline readings of all rats were taken right before FCA injection. Rats were then injected with 50 μL FCA containing 1 mg/mL Mtb (Mycobacterium tuberculosis) in right hind footpad under inhalation anesthesia (isoflurane). 48 hours after FCA injection, readings were taken as pre-dosing baseline and then rats were dosed orally with 0.5 mL of vehicle or compound (0.5 mL per 250 g rat). Readings were taken again at 1 h post dosing. All readings were taken with an Analgesy-Meter (Ugo Basile) which measures mechanical hyperalgesia via paw pressure.
FCA-induced hyperalgesia was tested with an Analgesy-Meter. Briefly, the Analgesy Meter applied an increasing pressure to the right hind paw. The paw withdrawal threshold was the pressure leading to withdrawal.
Meanwhile a group of rats were dosed orally with 50 mg/kg of Diclofenac as a positive control. Readings were taken again at 1 h post dosing. Dosing volume was 500 μL per 250 g rat.

[3] = test system: MIA model of osteoarthritis in rats; test: Monosodium iodoacetate (MIA) model of osteoarthritis pain; settings: 3, 10 and 30 mg/kg orally; one hour after dosing; FIG. 2
From the text: Injection of monosodium iodoacetate (MIA) into a joint (Kalbhen, 1987) inhibits the activity of glyceraldehyde-3-phosphate dehydrogenase in chondrocytes, resulting in disruption of glycolysis and eventually in cell death. The progressive loss of chondrocytes results in histological and morphological changes of the articular cartilage, closely resembling those seen in osteoarthritis patients.
The osteoarthritis was induced in 200 g male Sprague Dawley rats. […]
Typically during disease progression, there was an inflammation period of 0-7 days post-intra-articular injection followed by progressive degeneration of the cartilage and subchondral bone from days 14-55. […] Tactile allodynia was measured via von Frey assay, hind limb paw weight distribution was monitored using an incapacitence tester (Columbus Instruments, Columbus, Ohio, USA) and hind limb grip strength was measured using a grip strength meter (Columbus Instruments, Columbus, Ohio, USA). […] Hind paw weight distribution was determined by placing rats in a chamber so that each hind paw rests on a separate force plate of the incapacitence tester. The force exerted by each hind limb (measured in grams) is averaged over a 3 second period. Three measurements were taken for each rat, and the change in hind paw weight distribution calculated. […]

## CC(C)(CO)NC(=O)c1nn(-c2ccc(F)cc2F)c2c1C[C@H]1C[C@@H]21 [Compound 493, (1aR,5aR)-2-(2,4-Difluoro-phenyl)-1a,2,5,5a-tetrahydro-1H-2,3-diaza-cyclopropa[a]pentalene-4-carboxylic Acid (2-Hydroxy-1,1-dimethyl-ethyl)-amide]
[1]; time course
  time of maximum efficacy post-dosing: 1 h
[1]; von Frey 30, 60 and 180 minutes after dosing, FIG. 3
  increase in paw withdrawal threshold (PWT) in comparison with vehicle and gabapentin: exhibiting therapeutic efficacy
[2]
  increase in paw withdrawal threshold (PWT) in comparison with the vehicle: exhibited therapeutic efficacy
[3]
  Increase in paw withdrawal threshold (PWT) in comparison with vehicle: exhibiting therapeutic efficacy
